In test [1] the test system is R388-mediated conjugation. As to conditions: cited from earlier work; for inhibition of bacterial conjugation: ref Getino et al., 2015; for inhibition of bacterial conjugation in vivo assays: ref Fernández-Lopez et al., 2005.
Test [2] deals with R388 transfer (bacterial conjugation). Put plainly: High-throughput conjugation assay. The class given is cell-based. Conditions: 500 μM compound (Fig. 3A), E. coli DH5α donor, BL21(DE3) recipient.
For test [3], the target named is T1, TrwD (Escherichia coli, UniProt O50338). The test is described as follows: ATP hydrolysis assay. The format is biochemical, conjugative plasmid R388. Conditions: for K0.5 ATP of TrwD in the presence of fatty acid / mechanism of inhibition of TrwD ATP hydrolysis: 21 μM linoleic acid or 30 μM 2-HDA; for K0.5 ATP of TrwD in the presence of fatty acid: 44 μM in the absence of fatty acids; for mechanism of inhibition of TrwD ATP hydrolysis: increasing ATP; for effect on Vmax of TrwD ATP hydrolysis: compound at its Ki[app] (21 μM linoleic acid, 30 μM 2-HDA); for inhibition (reduction) of TrwD ATPase activity: 50 μM fatty acid.

The target of test [4] is T1, TrwD. Put plainly: Partial proteolysis of TrwD by papain. Conditions: 1:10 to 1:100 TrwD:2-HDA or 1:100 TrwD:palmitic acid molar ratio; 90 min, 25 °C. Also noted: species or system conjugative plasmid R388.
The test system of test [5] is TrwC. The test is described as follows: ATP hydrolysis assay. The class given is biochemical, conjugative plasmid R388. As to conditions: 50 μM linoleic acid; ATPase 2 μM.
Test [6] addresses TrwK (Escherichia coli, UniProt O50330). The test is described as follows: ATP hydrolysis assay. Conditions: 50 μM linoleic acid; ATPase 2 μM. The class given is biochemical, conjugative plasmid R388.
Test [7] addresses TrwB (Escherichia coli, UniProt Q04230). Put plainly: ATP hydrolysis assay. The class given is biochemical, conjugative plasmid R388. As to conditions: 50 μM linoleic acid; ATPase 2 μM.

Values joined by “and” are separate entries in the source; they are usually repeats but may differ in a detail not shown here. Equal entries are not always repeated.

T1 sequence (O50338 1-358): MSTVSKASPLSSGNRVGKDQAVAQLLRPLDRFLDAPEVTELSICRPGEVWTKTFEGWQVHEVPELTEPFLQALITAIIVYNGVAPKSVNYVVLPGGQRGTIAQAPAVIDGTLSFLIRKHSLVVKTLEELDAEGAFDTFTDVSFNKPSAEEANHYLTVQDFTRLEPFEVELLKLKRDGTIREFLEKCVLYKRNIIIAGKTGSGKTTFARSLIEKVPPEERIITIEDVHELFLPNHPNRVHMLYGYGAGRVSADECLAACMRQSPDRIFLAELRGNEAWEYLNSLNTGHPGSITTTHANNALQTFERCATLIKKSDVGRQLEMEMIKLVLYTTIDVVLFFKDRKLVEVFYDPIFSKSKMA

Take `CCCCCCCCCC#CCCC#CC(=O)O` [2,6-HDA, 2,6 hexadecadiynoic acid]: the “inhibition of bacterial conjugation” value was “more effective in inhibiting bacterial conjugation” in test [1] and “efficient conjugation inhibitors” in test [2]. Further, the Ki in test [3] is 43.8 ± 2.8 µM.
On to `CCCCCCCCCCCCCC#CC(=O)O` [2-HDA, 2-hexadecynoic acid], for which the “susceptibility of TrwD to papain digestion” value in test [4] is listed as “high susceptibility to papain degradation”. Besides, the “inhibition of bacterial conjugation” value in test [1] is “more effective in inhibiting bacterial conjugation”. Besides, in test [3], the Ki came out at 29.7 ± 2.1 µM, the “mechanism of inhibition of TrwD ATP hydrolysis” value is “non-competitive” and the “effect on Vmax of TrwD ATP hydrolysis” value is given as “reduced by half”. In addition, the “K0.5 ATP of TrwD in the presence of fatty acid” value in test [3] (TrwD 2 μM) was found to be 66 µM. The “Kd ADP of TrwD in the presence of fatty acid” value in test [3] (30 μM 2-HDA, TrwD 2 μM, control without 2-HDA 45.1 ± 4.1 μM) is 51 µM and 51.7 ± 9.8 µM.
With `CCCCCCCCCCCCCCCC#CC(=O)O` [2-ODA, 2-octadecynoic acid], the “inhibition of bacterial conjugation” value in test [1] is reported as “more effective in inhibiting bacterial conjugation”; in test [2], “efficient conjugation inhibitors”. This compound registered a Ki in test [3] of 29.8 ± 4.1 µM.
As to `CCCCCCCCCCCC(=O)O` [Lauric acid], the “inhibition of bacterial conjugation in vivo assays” value (“inhibition … in vivo assays” for short) in test [1] was “unable to inhibit significantly”. Besides, the “inhibition (reduction) of TrwD ATPase activity” value (from here on “inhibition (reduction)”) in test [3] (TrwD 2 μM) is listed as “no inhibition was observed”.
Regarding `CCCCCCCCCCCCCCCC(=O)O` [Palmitic acid], the “susceptibility of TrwD to papain digestion” value in test [4] was “did not affect the susceptibility”. For the same compound, in test [1], the “inhibition … in vivo assays” value was “unable to inhibit significantly”. Besides, in test [3] (TrwD 2 μM), the “inhibition (reduction)” value was “no inhibition was observed”.
Turning to `CCCCC/C=C\C/C=C\CCCCCCCC(=O)O` [linoleic acid], the “effect on TrwC ATPase activity” value in test [5] was “no significant effect”. Moreover, in test [1], the “inhibition … in vivo assays” value is “effective inhibitors of bacterial conjugation”. Further, the “effect on TrwK ATPase activity” value in test [6] was “no significant effect”. Further, in test [3], affinity was put at a Ki of 20.9 ± 1.6 µM, the “mechanism of inhibition of TrwD ATP hydrolysis” value was “non-competitive” and the “effect on Vmax of TrwD ATP hydrolysis” value was “reduced by half”. For the same compound, the “K0.5 ATP of TrwD in the presence of fatty acid” value in test [3] (TrwD 2 μM) was determined as 44 µM. In test [7], the “effect on TrwB ATPase activity” value is “no significant effect”.
Take `CCCCCCCC/C=C\CCCCCCCC(=O)O` [oleic acid]: the “inhibition … in vivo assays” value in test [1] is on record as “effective inhibitors of bacterial conjugation”. The “inhibition (reduction)” value in test [3] (TrwD 2 μM) is given as “more than 90%”.
